These results are taken from US4012284A (Societa' Farmaceutici Italia, S.p.A., priority 1962, dated 1977).

Molecules are shown by their SMILES.

One data set is described as follows: Solubility. Format: physicochemical.
The next data set relates to Ehrlich adenocarcinoma. The experiment in a line: Ehrlich adenocarcinoma (solid) in mice (Table VI). The conditions noted are these: controls 0/10. Format: in vivo, mouse.

Regarding `COc1cccc2c1C(=O)c1c(O)c3c(c(O)c1C2=O)C[C@@](O)(C(C)=O)C[C@@H]3O[C@H]1C[C@H](N)[C@H](O)[C@H](C)O1` [F.I. 1762], the solubility entry is on record as “soluble” in the data set “Solubility” (in alcohols, ketones, halogenated hydrocarbons, aqueous solutions of organic and inorganic acids); “practically insoluble” in “Solubility” (in ethers and saturated hydrocarbons). In addition, in “Solubility” (water), the solubility in water entry is “slightly soluble”. The Mortality in the data set on Ehrlich adenocarcinoma (3 mg/kg/day) and in the data set on Ehrlich adenocarcinoma (6 mg/kg/day) was 0/10 throughout.
